Measurements as given in patent publication US20240016876A1, “COMPOSITION FOR HANGOVER RELIEF COMPRISING NONI FRUIT EXTRACT OR FRACTION THEREOF AND USE THEREOF” (Cosmax NBT, Inc., priority 2020, published 2024).

Test system: alcohol dehydrogenase (ADH)
Assay: ADH activity enhancing efficacy (in vitro, Bergmeyer method)
Assay type: biochemical
Details: samples treated at 10 μM; control group (CTL) not treated = 100%; FIGS. 1 and 2
Method: The ADH activity was measured by referring to [Bergmeyer, H. U. 1974. Methods of enzymatic analysis. Academic Press, New York. pp. 28], and measurements were made according to the method presented herein. All samples were treated at 10 μM, and the ADH activity of each sample was expressed as relative activity (%) with respect to the control group, based on 100% of the activity of the control group (CTL) which was not treated with the sample.

Structure (SMILES)	ADH activity compared to the control group
CC(=O)OCC1=C[C@@H]2OC(=O)C3=CO[C@@H](O[C@@H]4O[C@H](CO)[C@@H](O)[C@H](O)[C@H]4O)[C@H]1[C@@H]32 [asperuloside]	did not show an increase
COc1ccc(C(=O)O)cc1 [p-anisic acid]	did not show an increase
O=C(O)c1cc(O)c(O)c(O)c1 [gallic acid]	did not show an increase
O=C(/C=C/c1ccc(O)c(O)c1)O[C@@H]1C[C@](O)(C(=O)O)C[C@@H](O)[C@H]1O [chlorogenic acid]	did not show an increase
O=C(O)c1ccc(O)cc1 [4-hydroxybenzoic acid]	did not show an increase
O=C(O)C1=CO[C@@H](O[C@@H]2O[C@H](CO)[C@@H](O)[C@H](O)[C@H]2O)[C@@H]2C(CO)=C[C@H](O)[C@H]12 [deacetylasperulosidic acid]	did not show an increase
O=C(O)/C=C/c1ccc(O)c(O)c1 [caffeic acid]	did not show an increase
COc1cc2ccc(=O)oc2cc1O [scopoletin]	did not show an increase
CC(=O)OCC1=C[C@H](O)[C@@H]2C(C(=O)O)=CO[C@@H](O[C@@H]3O[C@H](CO)[C@@H](O)[C@H](O)[C@H]3O)[C@H]12 [asperulosidic acid]	did not show an increase
